From ChEMBL document CHEMBL1132983, “Doubly homologated dihalovinyl and acetylene analogues of adenosine: synthesis, interaction with S-adenosyl-L-homocysteine hydrolase, and antiviral and cytostatic effects” (J Med Chem, 2000)

How the values were obtained:
[1] = molecular target: Adenosylhomocysteinase (Homo sapiens) (UniProt P23526); test: Compound was evaluated for inhibition of human placental AdoHcy hydrolase at a concentration of 0.1 uM
[2] = molecular target: Adenosylhomocysteinase (Homo sapiens) (UniProt P23526); test: Compound was evaluated for inhibition of human placental AdoHcy hydrolase at a concentration of 100 uM
[3] = molecular target: Adenosylhomocysteinase (Homo sapiens) (UniProt P23526); test: Compound was evaluated for inhibition of human placental AdoHcy hydrolase at a concentration of 10 uM
[4] = molecular target: Adenosylhomocysteinase (Homo sapiens) (UniProt P23526); test: Compound was evaluated for inhibition of human placental AdoHcy hydrolase at a concentration of 50 uM
[5] = molecular target: Adenosylhomocysteinase (Homo sapiens) (UniProt P23526); test: Compound was evaluated for inhibition of human placental AdoHcy hydrolase at a concentration of 1.0 uM

Adenosylhomocysteinase (Homo sapiens), sequence (P23526 2-432 limits assumed): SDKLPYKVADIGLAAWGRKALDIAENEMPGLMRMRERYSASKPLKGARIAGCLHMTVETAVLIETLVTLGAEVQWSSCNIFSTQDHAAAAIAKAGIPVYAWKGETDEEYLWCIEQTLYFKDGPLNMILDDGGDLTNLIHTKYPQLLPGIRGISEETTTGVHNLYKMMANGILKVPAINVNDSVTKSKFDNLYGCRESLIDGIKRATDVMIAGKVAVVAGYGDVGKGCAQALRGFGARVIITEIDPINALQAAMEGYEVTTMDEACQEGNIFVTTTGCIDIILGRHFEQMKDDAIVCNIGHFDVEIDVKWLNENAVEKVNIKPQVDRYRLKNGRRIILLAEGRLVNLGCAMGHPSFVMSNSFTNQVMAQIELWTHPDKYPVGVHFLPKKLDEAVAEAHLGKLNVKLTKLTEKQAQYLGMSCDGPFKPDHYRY

Structure (SMILES) | Enzyme activity [1] [%] | Enzyme activity [2] [%] | Enzyme activity [3] [%] | Enzyme activity [4] [%] | Enzyme activity [5] [%]
Nc1ncnc2c1ncn2C1O[C@H](C/C=C(/F)Br)[C@@H](O)[C@H]1O (stereo not given in full) | 90.6 | 5.8 | 37.4 | 9.7 | 87.4
Nc1ncnc2c1ncn2C1O[C@H](CC=C(Br)Br)[C@@H](O)[C@H]1O (stereo not given in full) | 87.5 | 4 | 17.1 | 5 | 48.5
C#CC[C@H]1OC(n2cnc3c(N)ncnc32)[C@H](O)[C@@H]1O (stereo not given in full) | 98.3 | 8 | 38.9 | 14.3 | 73.4
